Values joined by “and” are separate entries in the source; they are usually repeats but may differ in a detail not shown here. Equal entries are not always repeated. Marks after values point to notes of the source that are not given here. Non-standard residues stand in square brackets, D forms with d. Residues, ends and D or L forms follow the SMILES beside them. *: point of attachment. Asu = N[C@@H](CCCCCC(=O)O)C(=O)O; NHOH = ON*
What was measured:
HDAC3/NCoR2 [1] = molecular target: T1, HDAC3/NCoR2 (Homo sapiens, UniProt O15379); test: HDAC inhibition assay (fluorogenic, Ac-Leu-Gly-Lys(Ac)-AMC); format: biochemical; conditions: for HDAC3 dose-response data (relative enzyme activity), Fig. 6 + S. Fig. 10: duplicate columns
T1 construct: HDAC3/NCoR2 (full length, C-terminal His tag, NCoR2 N-terminal GST tag); purchased BPS Bioscience 50003

HDAC6 = molecular target: T2, HDAC6 (Homo sapiens, UniProt Q9UBN7); test: as above; format: biochemical; conditions: HDAC6, replicates
T2 construct: HDAC6 (full length, BPS Bioscience, cat. #: 50056); purchased BPS Bioscience 50056
T2 sequence (Q9UBN7 1-1215): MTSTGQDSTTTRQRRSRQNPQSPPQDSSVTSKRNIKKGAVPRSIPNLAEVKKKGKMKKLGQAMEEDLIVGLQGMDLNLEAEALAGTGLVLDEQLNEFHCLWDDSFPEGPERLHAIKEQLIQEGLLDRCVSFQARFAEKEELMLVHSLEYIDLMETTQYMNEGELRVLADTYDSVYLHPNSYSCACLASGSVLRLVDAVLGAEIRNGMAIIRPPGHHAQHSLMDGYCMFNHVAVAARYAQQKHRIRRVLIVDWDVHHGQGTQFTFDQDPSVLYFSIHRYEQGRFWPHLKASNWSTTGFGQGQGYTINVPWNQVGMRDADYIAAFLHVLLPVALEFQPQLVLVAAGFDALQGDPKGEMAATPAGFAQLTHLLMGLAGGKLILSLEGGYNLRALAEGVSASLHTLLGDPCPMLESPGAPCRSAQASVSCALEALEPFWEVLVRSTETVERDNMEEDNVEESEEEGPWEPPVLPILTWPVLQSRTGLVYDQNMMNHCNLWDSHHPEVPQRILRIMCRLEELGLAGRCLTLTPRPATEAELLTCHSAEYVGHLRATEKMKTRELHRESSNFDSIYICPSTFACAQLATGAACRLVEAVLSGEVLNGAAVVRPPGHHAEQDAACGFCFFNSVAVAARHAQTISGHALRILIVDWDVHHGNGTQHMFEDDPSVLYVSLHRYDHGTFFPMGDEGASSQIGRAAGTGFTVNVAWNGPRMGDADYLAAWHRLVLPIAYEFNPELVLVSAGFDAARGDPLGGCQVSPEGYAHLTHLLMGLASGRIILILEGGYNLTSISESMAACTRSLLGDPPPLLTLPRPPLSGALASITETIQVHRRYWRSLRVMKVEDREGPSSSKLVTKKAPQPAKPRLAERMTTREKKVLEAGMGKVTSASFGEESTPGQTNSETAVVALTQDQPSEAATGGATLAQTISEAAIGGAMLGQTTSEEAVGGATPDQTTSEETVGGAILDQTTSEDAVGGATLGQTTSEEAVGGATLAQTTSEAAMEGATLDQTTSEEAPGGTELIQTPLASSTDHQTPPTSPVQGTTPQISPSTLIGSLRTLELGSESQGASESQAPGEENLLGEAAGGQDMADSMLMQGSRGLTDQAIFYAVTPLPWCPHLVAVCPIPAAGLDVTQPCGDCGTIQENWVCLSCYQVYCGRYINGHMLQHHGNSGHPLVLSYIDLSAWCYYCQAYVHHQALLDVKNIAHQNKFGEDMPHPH

HDACs 1‒3 and 8 = test: HDAC inhibition assays, statements across several class I isozymes; format: biochemical, human; conditions: resynthesized peptides, from Ki
HDAC8 = molecular target: T3, HDAC8 (Homo sapiens, UniProt Q9BY41); test: HDAC inhibition assay (fluorogenic, Ac-Leu-Gly-Lys(Tfa)-AMC); format: biochemical; conditions: for HDAC8 dose-response data (relative enzyme activity, replicate values), Fig. 6 + S. Fig. 10: two replicate columns per inhibitor; for HDAC8 dose-response data (relative enzyme activity), Fig. 6 + S. Fig. 10: duplicate columns
T3 construct: HDAC8 (full length, C-terminal His tag, BPS Bioscience, cat. #: 50008); purchased BPS Bioscience 50008
T3 sequence (Q9BY41 1-377): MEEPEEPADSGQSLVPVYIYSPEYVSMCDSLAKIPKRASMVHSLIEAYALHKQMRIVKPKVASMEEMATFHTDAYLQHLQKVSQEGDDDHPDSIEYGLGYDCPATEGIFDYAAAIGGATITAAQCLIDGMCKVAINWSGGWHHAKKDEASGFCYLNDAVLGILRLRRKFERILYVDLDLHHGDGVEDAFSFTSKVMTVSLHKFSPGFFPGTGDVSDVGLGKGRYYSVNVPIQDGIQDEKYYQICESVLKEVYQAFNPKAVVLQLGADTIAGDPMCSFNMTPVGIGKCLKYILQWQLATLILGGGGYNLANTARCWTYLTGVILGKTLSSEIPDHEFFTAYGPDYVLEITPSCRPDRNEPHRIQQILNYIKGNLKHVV

HDAC2 [2] = molecular target: T4, HDAC2 (Homo sapiens, UniProt Q92769); test: Recombinant HDAC µSPOT microarray binding assay;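 note: Cellulose-bound peptide spots on slides incubated with six HDAC enzyme concentrations, binding intensity read, four-parameter variable-slope fit, EC50 is enzyme concentration giving half-maximal binding, in HEPES buffer pH 7.4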
T4 construct: HDAC2 (full length, C-terminal His tag, BPS Bioscience, cat. #: 50002); purchased BPS Bioscience 50002
Procedure: Experiments were performed twice, data were obtained with Array Analyze software (Active Motif), and data analysis and representation were performed with the GraphPad Prism 7 software. Outliers were curated manually and data were fitted to nonlinear regression [log(agonist) vs. response—variable slope (four parameters)]. […] Non-sigmoidal curves were denoted as not determined (N.D.) The pEC50 values were determined as the concentration of HDAC enzyme required for half-maximal binding signal.

HDAC3/NCoR2 [3] = molecular target: T1, HDAC3/NCoR2; test: Recombinant HDAC µSPOT microarray binding assay;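 note: peptide spots on cellulose slides incubated with rising HDAC enzyme concentrations, imaged together, four-parameter logistic fit, EC50 is enzyme concentration giving half-maximal binding signal, two experiments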
HDAC2 [4] = molecular target: T4, HDAC2; test: HDAC inhibition assay (fluorogenic, Ac-Leu-Gly-Lys(Ac)-AMC); format: biochemical; conditions: for HDAC2 dose-response data (relative enzyme activity), Fig. 6 + S. Fig. 10: duplicate columns
HDAC1 [5] = molecular target: T5, HDAC1 (Homo sapiens, UniProt Q13547); test: Recombinant HDAC µSPOT microarray binding assay;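 note: slides with spotted peptides incubated with six HDAC concentrations in HEPES buffer pH 7.4, spot intensities fitted by four-parameter logistic, EC50 as enzyme concentration giving half-maximal binding signal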
T5 construct: HDAC1 (full length, C-terminal His tag, C-terminal FLAG tag, BPS Bioscience, cat. #: 50051); FLAG (C); purchased BPS Bioscience 50051

HDAC1 [6] = molecular target: T5, HDAC1; test: HDAC inhibition assay (fluorogenic, Ac-Leu-Gly-Lys(Ac)-AMC); format: biochemical; conditions: for HDAC1 dose-response data (relative enzyme activity), Fig. 6 + S. Fig. 10: duplicate columns
[7] = log[inhibitor(M)] -10,5850266520292*, whole line marked with asterisks

T5 sequence (Q13547 whole entry): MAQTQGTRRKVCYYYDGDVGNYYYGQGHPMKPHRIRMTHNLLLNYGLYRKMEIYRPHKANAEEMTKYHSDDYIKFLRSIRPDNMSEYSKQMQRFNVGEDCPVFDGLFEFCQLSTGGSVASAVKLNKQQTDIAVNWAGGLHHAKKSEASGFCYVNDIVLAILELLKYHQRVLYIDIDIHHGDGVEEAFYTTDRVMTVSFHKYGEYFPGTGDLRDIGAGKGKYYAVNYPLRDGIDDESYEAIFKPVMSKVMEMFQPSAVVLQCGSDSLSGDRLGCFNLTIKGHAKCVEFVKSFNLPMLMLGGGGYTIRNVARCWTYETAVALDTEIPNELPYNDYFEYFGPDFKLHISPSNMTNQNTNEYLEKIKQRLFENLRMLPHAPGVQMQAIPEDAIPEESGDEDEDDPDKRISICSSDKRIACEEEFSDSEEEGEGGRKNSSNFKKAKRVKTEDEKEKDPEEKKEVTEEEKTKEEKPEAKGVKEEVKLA
T1 sequence (O15379 whole entry): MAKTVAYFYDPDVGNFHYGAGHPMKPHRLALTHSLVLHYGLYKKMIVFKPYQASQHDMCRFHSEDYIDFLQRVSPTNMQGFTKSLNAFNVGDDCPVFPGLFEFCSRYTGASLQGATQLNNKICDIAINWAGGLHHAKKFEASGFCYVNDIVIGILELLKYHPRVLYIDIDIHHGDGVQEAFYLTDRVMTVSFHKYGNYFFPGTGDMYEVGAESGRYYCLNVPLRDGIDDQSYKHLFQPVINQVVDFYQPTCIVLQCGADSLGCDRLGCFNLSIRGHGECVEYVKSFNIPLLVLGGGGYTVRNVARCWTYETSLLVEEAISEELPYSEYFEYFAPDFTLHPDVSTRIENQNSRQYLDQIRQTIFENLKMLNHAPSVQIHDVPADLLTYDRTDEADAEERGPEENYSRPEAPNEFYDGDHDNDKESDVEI
T1 sequence (Q9Y618 389-480 partner limits assumed): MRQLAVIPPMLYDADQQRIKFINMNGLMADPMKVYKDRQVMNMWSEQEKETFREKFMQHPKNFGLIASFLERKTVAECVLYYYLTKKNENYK
T4 sequence (Q92769 whole entry): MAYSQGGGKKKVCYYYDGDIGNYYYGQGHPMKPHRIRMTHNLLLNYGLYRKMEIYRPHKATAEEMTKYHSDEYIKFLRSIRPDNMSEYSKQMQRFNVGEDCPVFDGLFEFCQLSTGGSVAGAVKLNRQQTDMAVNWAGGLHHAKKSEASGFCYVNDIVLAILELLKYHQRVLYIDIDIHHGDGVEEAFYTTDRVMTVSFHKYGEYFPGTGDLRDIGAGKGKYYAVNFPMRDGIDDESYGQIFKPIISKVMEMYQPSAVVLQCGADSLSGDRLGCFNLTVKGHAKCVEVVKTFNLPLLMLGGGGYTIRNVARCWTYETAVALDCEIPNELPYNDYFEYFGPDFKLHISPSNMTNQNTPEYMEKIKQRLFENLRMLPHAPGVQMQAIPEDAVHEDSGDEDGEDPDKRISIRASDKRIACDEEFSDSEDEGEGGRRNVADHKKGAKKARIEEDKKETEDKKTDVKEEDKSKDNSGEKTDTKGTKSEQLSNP

Compound: CC(=O)NCC(=O)NCC(=O)N[C@@H](CCCCCC(=O)NO)C(=O)N[C@@H](C)C(=O)N[C@@H](CCCNC(=N)N)C(=O)N[C@@H](C)C(=O)N[C@@H](CCCCN)C(=O)N[C@@H](C)C(=O)N[C@@H](CCCCN)C(=O)N[C@H](C(=O)N[C@@H](CCCNC(=N)N)C(=O)N[C@@H](CO)C(=O)N[C@@H](CO)C(=O)N[C@@H](CCCNC(=N)N)C(=O)N[C@@H](C)C(=O)NCC(=O)N[C@@H](Cc1c[nH]c2ccccc12)C(N)=O)[C@@H](C)O [9a] (Ac-GG[Asu](NHOH)ARAKAKTRSSRAGW-NH2)
- Ki (HDAC3/NCoR2 [1]): 7.66 ± 0.07 nM
- HDAC3 dose-response data (relative enzyme activity), Fig. 6 + S. Fig. 10 (HDAC3/NCoR2 [1]; log[inhibitor(M)] -4.30103): 0.3821 and 0.6391
- HDAC3 dose-response data (relative enzyme activity), Fig. 6 + S. Fig. 10 (HDAC3/NCoR2 [1]; log[inhibitor(M)] -5): 2.293 and 2.409
- HDAC3 dose-response data (relative enzyme activity), Fig. 6 + S. Fig. 10 (HDAC3/NCoR2 [1]; log[inhibitor(M)] -5.69897): 8.406 and 7.571
- HDAC3 dose-response data (relative enzyme activity), Fig. 6 + S. Fig. 10 (HDAC3/NCoR2 [1]; log[inhibitor(M)] -6.39794): 24.6725 and 18.9774
- HDAC3 dose-response data (relative enzyme activity), Fig. 6 + S. Fig. 10 (HDAC3/NCoR2 [1]; log[inhibitor(M)] -7.09691): 37.2271 and 35.3982
- HDAC3 dose-response data (relative enzyme activity), Fig. 6 + S. Fig. 10 (HDAC3/NCoR2 [1]; log[inhibitor(M)] -7.79588): 64.8472 and 61.8977
- HDAC3 dose-response data (relative enzyme activity), Fig. 6 + S. Fig. 10 (HDAC3/NCoR2 [1]; log[inhibitor(M)] -8.49485): 94.5961 and 96.0669
- HDAC3 dose-response data (relative enzyme activity), Fig. 6 + S. Fig. 10 (HDAC3/NCoR2 [1]; log[inhibitor(M)] -9.19382): 98.4716 and 100.59
- HDAC3 dose-response data (relative enzyme activity), Fig. 6 + S. Fig. 10 (HDAC3/NCoR2 [1]; log[inhibitor(M)] -9.89279): 99.7271 and 104.621
- HDAC3 dose-response data (relative enzyme activity), Fig. 6 + S. Fig. 10 (HDAC3/NCoR2 [1]; [7]): 100,6* and 100,492*
- residual enzymatic activity relative to control wells (HDAC6; log[inhibitor(M)] -4.30103): 0.99 and 1.47
- residual enzymatic activity relative to control wells (HDAC6; log[inhibitor(M)] -5): 0.54 and 1.15
- residual enzymatic activity relative to control wells (HDAC6; log[inhibitor(M)] -5.69897): 2.15 and 1.92
- residual enzymatic activity relative to control wells (HDAC6; log[inhibitor(M)] -6.39794): 7.05 and 5.56
- residual enzymatic activity relative to control wells (HDAC6; log[inhibitor(M)] -7.09691): 24.41 and 17.7
- residual enzymatic activity relative to control wells (HDAC6; log[inhibitor(M)] -7.79588): 54.41 and 42.53
- residual enzymatic activity relative to control wells (HDAC6; log[inhibitor(M)] -8.49485): 80.22 and 64.16
- residual enzymatic activity relative to control wells (HDAC6; log[inhibitor(M)] -9.19382): 93.97 and 80.87
- residual enzymatic activity relative to control wells (HDAC6; log[inhibitor(M)] -9.89279): 97.61 and 89.51
- residual enzymatic activity relative to control wells (HDAC6; log[inhibitor(M)] -10.585): 98,6* and 92,44*
- selectivity against HDACs 1‒3 versus HDAC8 (HDACs 1‒3 and 8): over 100 fold
- Ki (HDAC8): 5570 ± 130 nM
- HDAC8 dose-response data (relative enzyme activity, replicate values), Fig. 6 + S. Fig. 10 (HDAC8; Inhibitor conc [M] -8.49485 (log)): 101.387 and 98.0647
- HDAC8 dose-response data (relative enzyme activity, replicate values), Fig. 6 + S. Fig. 10 (HDAC8; Inhibitor conc [M] -9.19382 (log)): 105.308 and 102.184
- HDAC8 dose-response data (relative enzyme activity, replicate values), Fig. 6 + S. Fig. 10 (HDAC8; Inhibitor conc [M] given as -7.09691 (log)): 100.377 and 94.2492
- HDAC8 dose-response data (relative enzyme activity, replicate values), Fig. 6 + S. Fig. 10 (HDAC8; Inhibitor conc [M] given as -7.79588 (log)): 101.512 and 95.1709
- HDAC8 dose-response data (relative enzyme activity, replicate values), Fig. 6 + S. Fig. 10 (HDAC8; Inhibitor conc [M] given as -9.89279 (log)): 102.446 and 100.014
- HDAC8 dose-response data (relative enzyme activity, replicate values), Fig. 6 + S. Fig. 10 (HDAC8; Inhibitor conc [M] given as -10.585 (log)): 102,003* and 99,4628*
- HDAC8 dose-response data (relative enzyme activity), Fig. 6 + S. Fig. 10 (HDAC8; Inhibitor conc [M] -4.30103): 8.643 and 13.2074
- HDAC8 dose-response data (relative enzyme activity), Fig. 6 + S. Fig. 10 (HDAC8; Inhibitor conc [M] -5): 41.9349 and 42.6215
- HDAC8 dose-response data (relative enzyme activity), Fig. 6 + S. Fig. 10 (HDAC8; Inhibitor conc [M] -5.69897): 76.1615 and 76.0658
- HDAC8 dose-response data (relative enzyme activity), Fig. 6 + S. Fig. 10 (HDAC8; Inhibitor conc [M] -6.39794): 95.4429 and 93.9691
- EC50 (HDAC2 [2]): 1.95 nM
- EC50 (HDAC3/NCoR2 [3]): 6.03 nM
- HDAC2 dose-response data (relative enzyme activity), Fig. 6 + S. Fig. 10 (HDAC2 [4]; log[inhibitor(M)] -5): 5.281 and 8.057
- HDAC2 dose-response data (relative enzyme activity), Fig. 6 + S. Fig. 10 (HDAC2 [4]; log[inhibitor(M)] -5.69897): 15.9037 and 16.112
- HDAC2 dose-response data (relative enzyme activity), Fig. 6 + S. Fig. 10 (HDAC2 [4]; log[inhibitor(M)] -7.79588): 105.562 and 90.7957
- HDAC2 dose-response data (relative enzyme activity), Fig. 6 + S. Fig. 10 (HDAC2 [4]; [7]): 99,9428* and 99,2519*
- Ki (HDAC2 [4]; resynthesized peptide in solution, Cheng-Prusoff, n = 2): 48 ± 0.5 nM
- EC50 (HDAC1 [5]): > 25.1 nM
- Ki (HDAC1 [6]): 31.1 ± 0.2 nM
- HDAC1 dose-response data (relative enzyme activity), Fig. 6 + S. Fig. 10 (HDAC1 [6]; log[inhibitor(M)] -5.69897): 7.627 and 13.3733
- HDAC1 dose-response data (relative enzyme activity), Fig. 6 + S. Fig. 10 (HDAC1 [6]; log[inhibitor(M)] -6.39794): 29.353 and 31.2435
- HDAC1 dose-response data (relative enzyme activity), Fig. 6 + S. Fig. 10 (HDAC1 [6]; log[inhibitor(M)] -7.09691): 58.5172 and 64.5613
- HDAC1 dose-response data (relative enzyme activity), Fig. 6 + S. Fig. 10 (HDAC1 [6]; log[inhibitor(M)] -7.79588): 95.7003 and 88.0669
- HDAC1 dose-response data (relative enzyme activity), Fig. 6 + S. Fig. 10 (HDAC1 [6]; log[inhibitor(M)] -8.49485): 105.543 and 108.963
- HDAC1 dose-response data (relative enzyme activity), Fig. 6 + S. Fig. 10 (HDAC1 [6]; log[inhibitor(M)] -9.19382): 98.3062 and 98.503
- HDAC1 dose-response data (relative enzyme activity), Fig. 6 + S. Fig. 10 (HDAC1 [6]; log[inhibitor(M)] -9.89279): 101.14 and 97.4578
- HDAC1 dose-response data (relative enzyme activity), Fig. 6 + S. Fig. 10 (HDAC1 [6]; [7]): 103,131* and 101,221*
